Measured values as given in patent US5464748A, “Method of detecting and monitoring levels of 3'-amino-3'-deoxythymidine in body fluids and antibodies for same” (The UAB Research Foundation, priority 1993, dated 1995).

Key:
[1] = test system: antiviral activity of AZT; experiment: effect of AMT on antiviral activity of AZT
[2] = test system: erythroid burst-forming units (BFU-E); experiment: toxicity to erythroid burst-forming units; format: cell-based; settings: compared with AZT
[3] = test system: granulocyte macrophage colony-forming units (CFU-GM); experiment: toxicity to granulocyte macrophage colony-forming units; format: cell-based; settings: compared with AZT
[4] = pharmacokinetics and metabolism of AZT: hepatic catabolites; format: in vivo, human; settings: in addition to GAZT
[5] = recently discovered; Cretton et al 1991; cited from earlier work
[6] = test system: Human Immunodeficiency Virus (HIV); settings: HIV infected patients; cited from earlier work
bone marrow cells = settings: AZT treatment; cited from earlier work

Compound | effect on the antiviral activity of AZT ([1]; concentrations as low as a 1:1 molar ratio with AZT) | interference with the antiviral activity of AZT ([1]; stated as believed, no concentration given) | toxicity to BFU-E relative to AZT [2] | toxicity to CFU-GM relative to AZT [3] | hepatic catabolites of AZT [4] | hepatic catabolite of AZT [5] | clinical benefits [6] | toxicity to bone marrow cells (bone marrow cells)
Cc1cn([C@H]2C[C@H](N)[C@@H](CO)O2)c(=O)[nH]c1=O [AMT, 3'-amino-3'-deoxythymidine] | adverse effect on the antiviral activity of AZT | believed to interfere with the antiviral activity of AZT | many more times toxic | many more times toxic | – | – | – | –
Cc1cn([C@H]2C[C@H](N=[N+]=[N-])[C@@H](CO)O2)c(=O)[nH]c1=O [AZT, 3'-azido-3'-deoxythymidine] | – | – | – | – | 3'-amino-3'-deoxythymidine (AMT) and its 5'-O-glucuronide(GAMT) | 3'-amino-3'-deoxythymidine (AMT) | increased survival, decreased number of opportunistic infections, and partial improvement in neurologic manifestations | toxicity to bone marrow cells, manifested by anemia and neutropenia
